Where two headings read alike, the source gives them in different places.
Key:
[1] = tested on: hiPSC-CMs (iCell-Cardiomyocytes^2)
Protocol: (§1) Cells were seeded according to the instructions of the cell provider, in fibronectin-coated 48-well MEA plates (Axion Cytoview Plates, M768-tMEA-48B) at a density suited to form a monolayer (i.e., 50 K/well) and maintained in culture in a stage incubator (37°C, 5% CO2).
(§2) At least 4 h before the beginning of the baseline measurements, a full medium exchange was performed (to a final volume of 400 µL per well). Neat compounds were dissolved in 100% DMSO at a stock concentration 1000-fold the highest target concentration. […] Afterwards, these stock solutions were diluted with Maintenance medium (CDi), to 10-fold the intended concentration. The final DMSO concentration in test solutions and vehicle control was 0.1%.
(§3) Spontaneous electrical activity was recorded in hiPSC-CMs monolayers as field potentials using the Maestro Pro MEA instrument (Axion Biosystems, Atlanta, GA, United States), which allows the maintenance of accurate temperature and CO2 levels (37°C, 5% CO2). After the plate was placed in the Maestro Pro and allowed to equilibrate for about 10 min, baseline acquisition of field potential and impedance signals was initiated and lasted for 5 min each. […] As impedance measures resistance of an applied alternating current through the hiPSC-CMs monolayer, a reduction in the attachment of hiPSC-CMs to the bottom of the well due to cell death or changes in the monolayer morphology, causes a drop in the impedance signal.
The potential presence of various arrhythmic events was evaluated and noted during the data analysis.
(§4) After the acquisition of all timepoint measurements, raw data were loaded into the data analysis software Axion Cardiac Analysis Tool (V.3.2.3). […] A.csv file containing information on the FP parameters per well, per time point, was then generated and used as input to the in-house data management system (SPEcII v.3.4, Unlimit-IT, Geel, Belgium), where descriptive statistics were calculated. Summary values at different time points after compound addition are expressed as percent change from baseline and shown as mean ± standard deviation (SD).
(§5) The nonparametric Wilcoxon-Mann Whitney Test was used to compare the percent change from the baseline (Δ%) value between the group treated with the compound at a given concentration and the group treated with the DMSO at each matching time points. A two-sided test at 5% significance level was considered. […] To assess the physiological relevance of changes, a tolerance interval of DMSO experiments was calculated at each time point, for each parameter. […] TIs indicate an interval where, with a certain confidence level (1- α = 0.95), a specified proportion (p = 0.80) of percent change for DMSO data falls. The lower and upper limits based on the TI values were used as cut-offs for the interpretation of the changes. For the cytotoxicity assays, measurements of fluorescence (after background fluorescence subtraction) from wells treated with the compounds were normalized by the average value of vehicle experiments (DMSO 0.1%) to obtain a DMSO-corrected, delta/delta percent change. Experiments from each condition, as delta/delta percent, were averaged and expressed as mean ± SD. Statistical analysis was performed using a non-parametric test (Kruskal-Wallis) and each treatment condition was compared to the relative DMSO 0.1%. Differences were considered statistically significant when the p-value was smaller than 0.05.

[2] = free therapeutic Cmax in humans; ref FDA-approved drug packages, PharmaPendium; cited from earlier work
[3] = tested on: hiPSC-CMs (iCell-Cardiomyocytes^2); assay: MEA impedance (cytotoxicity readout) in hiPSC-CMs
Protocol: as §1, §2, §3, §4, §5

BR (beating rate), % change from baseline ([1]; 1 µM, 2h): 8±1% | FPD (field-potential duration), % change from baseline ([1]; 1 µM, 2h): -1±2.2% | FPDc (field-potential duration corrected by beat-rate), % change from baseline ([1]; 1 µM, 2h): 1.6±2.2% | BR (beating rate), % change from baseline ([1]; 1 µM, 24h): 16±2% | FPD (field-potential duration), % change from baseline ([1]; 1 µM, 24h): -2.8±1.5% | FPDc (field-potential duration corrected by beat-rate), % change from baseline ([1]; 1 µM, 24h): 2.1±1.1% | BR (beating rate), % change from baseline ([1]; 1 µM, 48h): 3±2% | FPD (field-potential duration), % change from baseline ([1]; 1 µM, 48h): 4.3±3% | FPDc (field-potential duration corrected by beat-rate), % change from baseline ([1]; 1 µM, 48h): 5.3±2.8% | BR (beating rate), % change from baseline ([1]; 1 µM, 72h): -2±3% | FPD (field-potential duration), % change from baseline ([1]; 1 µM, 72h): 8.1±4.8% | FPDc (field-potential duration corrected by beat-rate), % change from baseline ([1]; 1 µM, 72h): 7±3.6% | BR (beating rate), % change from baseline ([1]; 1 µM, 96h): -21±2 % | FPD (field-potential duration), % change from baseline ([1]; 1 µM, 96h): 16.9±3% | FPDc (field-potential duration corrected by beat-rate), % change from baseline ([1]; 1 µM, 96h): 8.1±2% | BR (beating rate), % change from baseline ([1]; 3 µM, 72h): -4±3% | FPD (field-potential duration), % change from baseline ([1]; 3 µM, 72h): 9.6±3.7% | FPDc (field-potential duration corrected by beat-rate), % change from baseline ([1]; 3 µM, 72h): 8.4±2.9% | BR (beating rate), % change from baseline ([1]; 3 µM, 96h): -20±4 % | FPD (field-potential duration), % change from baseline ([1]; 3 µM, 96h): 18.2±7.7% | FPDc (field-potential duration corrected by beat-rate), % change from baseline ([1]; 3 µM, 96h): 9.6±6.7% | BR (beating rate), % change from baseline ([1]; 3 µM, 2h): 8±1% | FPD (field-potential duration), % change from baseline ([1]; 3 µM, 2h): 0.7±2.8% | FPDc (field-potential duration corrected by beat-rate), % change from baseline ([1]; 3 µM, 2h): 3.1±2.9% | BR (beating rate), % change from baseline ([1]; 3 µM, 24h): 16±3% | FPD (field-potential duration), % change from baseline ([1]; 3 µM, 24h): -2.7±2.9% | FPDc (field-potential duration corrected by beat-rate), % change from baseline ([1]; 3 µM, 24h): 2.3±2.9% | BR (beating rate), % change from baseline ([1]; 3 µM, 48h): 2±2% | FPD (field-potential duration), % change from baseline ([1]; 3 µM, 48h): 5.1±3.9% | FPDc (field-potential duration corrected by beat-rate), % change from baseline ([1]; 3 µM, 48h): 5.7±3.9% | BR (beating rate), % change from baseline ([1]; 10 µM, 2h): 8±3% | FPD (field-potential duration), % change from baseline ([1]; 10 µM, 2h): 0.5±3.7% | FPDc (field-potential duration corrected by beat-rate), % change from baseline ([1]; 10 µM, 2h): 3±3.1% | BR (beating rate), % change from baseline ([1]; 10 µM, 24h): 18±6 % | FPD (field-potential duration), % change from baseline ([1]; 10 µM, 24h): -3.1±4.9% | FPDc (field-potential duration corrected by beat-rate), % change from baseline ([1]; 10 µM, 24h): 2.2±3.9% | BR (beating rate), % change from baseline ([1]; 10 µM, 48h): 3±4% | FPD (field-potential duration), % change from baseline ([1]; 10 µM, 48h): 6.6±2.8% | FPDc (field-potential duration corrected by beat-rate), % change from baseline ([1]; 10 µM, 48h): 7.4±2.1% | BR (beating rate), % change from baseline ([1]; 10 µM, 72h): -1±8% | FPD (field-potential duration), % change from baseline ([1]; 10 µM, 72h): 9.6±7.3% | FPDc (field-potential duration corrected by beat-rate), % change from baseline ([1]; 10 µM, 72h): 8.9±4.3% | BR (beating rate), % change from baseline ([1]; 10 µM, 96h): -19±5 % | FPD (field-potential duration), % change from baseline ([1]; 10 µM, 96h): 18.3±5.7% | FPDc (field-potential duration corrected by beat-rate), % change from baseline ([1]; 10 µM, 96h): 10.4±4.4% | BR (beating rate), % change from baseline ([1]; 30 µM, 2h): 5±4% | FPD (field-potential duration), % change from baseline ([1]; 30 µM, 2h): -0.1±3.5% | FPDc (field-potential duration corrected by beat-rate), % change from baseline ([1]; 30 µM, 2h): 1.6±2.8% | BR (beating rate), % change from baseline ([1]; 30 µM, 24h): 15±6% | FPD (field-potential duration), % change from baseline ([1]; 30 µM, 24h): -4.2±3.4% | FPDc (field-potential duration corrected by beat-rate), % change from baseline ([1]; 30 µM, 24h): 0.5±2.7% | BR (beating rate), % change from baseline ([1]; 30 µM, 48h): 1±5% | FPD (field-potential duration), % change from baseline ([1]; 30 µM, 48h): 5.6±1.7% | FPDc (field-potential duration corrected by beat-rate), % change from baseline ([1]; 30 µM, 48h): 6±2.2% | BR (beating rate), % change from baseline ([1]; 30 µM, 72h): -3±8% | FPD (field-potential duration), % change from baseline ([1]; 30 µM, 72h): 8.8±5.4% | FPDc (field-potential duration corrected by beat-rate), % change from baseline ([1]; 30 µM, 72h): 7.7±3.8% | BR (beating rate), % change from baseline ([1]; 30 µM, 96h): -20±4 % | FPD (field-potential duration), % change from baseline ([1]; 30 µM, 96h): 16.4±1.3% | FPDc (field-potential duration corrected by beat-rate), % change from baseline ([1]; 30 µM, 96h): 7.9±2.1%
Structure (SMILES): CC1(C)S[C@@H]2[C@H](NC(=O)[C@H](N)c3ccc(O)cc3)C(=O)N2[C@H]1C(=O)O [Amoxicillin]
Free Cmax [2]: 16.1 µM | Imp (impedance), % change from baseline ([3]; 1 µM, 2h): 2±4% | Imp (impedance), % change from baseline ([3]; 1 µM, 24h): 9±7% | Imp (impedance), % change from baseline ([3]; 1 µM, 48h): -2±4% | Imp (impedance), % change from baseline ([3]; 1 µM, 72h): 4±3 % | Imp (impedance), % change from baseline ([3]; 1 µM, 96h): 0±8% | Imp (impedance), % change from baseline ([3]; 3 µM, 72h): 1±4% | Imp (impedance), % change from baseline ([3]; 3 µM, 96h): -2±6% | Imp (impedance), % change from baseline ([3]; 3 µM, 2h): 2±3% | Imp (impedance), % change from baseline ([3]; 3 µM, 24h): 7±6% | Imp (impedance), % change from baseline ([3]; 3 µM, 48h): -3±6% | Imp (impedance), % change from baseline ([3]; 10 µM, 2h): 2±3% | Imp (impedance), % change from baseline ([3]; 10 µM, 24h): 7±6% | Imp (impedance), % change from baseline ([3]; 10 µM, 48h): -2±3% | Imp (impedance), % change from baseline ([3]; 10 µM, 72h): 1±4% | Imp (impedance), % change from baseline ([3]; 10 µM, 96h): -1±6% | Imp (impedance), % change from baseline ([3]; 30 µM, 2h): 2±3% | Imp (impedance), % change from baseline ([3]; 30 µM, 24h): 2±4% | Imp (impedance), % change from baseline ([3]; 30 µM, 48h): -1±3% | Imp (impedance), % change from baseline ([3]; 30 µM, 72h): -6±4% | Imp (impedance), % change from baseline ([3]; 30 µM, 96h): -4±5%

— article PMC10364322, “Evaluation of chronic drug-induced electrophysiological and cytotoxic effects using human-induced pluripotent stem cell-derived cardiomyocytes (hiPSC-CMs)” (Frontiers in Pharmacology, 2023)
